Assay results from patent publication US20250222120A1, “SYNTHESIS OF NOVEL SMALL MOLECULE CARM1 DEGRADERS, COMPOUNDS FORMED THEREBY, AND PHARMACEUTICAL COMPOSITIONS CONTAINING THEM” (Wisconsin Alumni Research Foundation, priority 2024, published 2025).

Target: T1, CARM1 (Homo sapiens, UniProt Q86X55)
T1 sequence (Q86X55 1-608): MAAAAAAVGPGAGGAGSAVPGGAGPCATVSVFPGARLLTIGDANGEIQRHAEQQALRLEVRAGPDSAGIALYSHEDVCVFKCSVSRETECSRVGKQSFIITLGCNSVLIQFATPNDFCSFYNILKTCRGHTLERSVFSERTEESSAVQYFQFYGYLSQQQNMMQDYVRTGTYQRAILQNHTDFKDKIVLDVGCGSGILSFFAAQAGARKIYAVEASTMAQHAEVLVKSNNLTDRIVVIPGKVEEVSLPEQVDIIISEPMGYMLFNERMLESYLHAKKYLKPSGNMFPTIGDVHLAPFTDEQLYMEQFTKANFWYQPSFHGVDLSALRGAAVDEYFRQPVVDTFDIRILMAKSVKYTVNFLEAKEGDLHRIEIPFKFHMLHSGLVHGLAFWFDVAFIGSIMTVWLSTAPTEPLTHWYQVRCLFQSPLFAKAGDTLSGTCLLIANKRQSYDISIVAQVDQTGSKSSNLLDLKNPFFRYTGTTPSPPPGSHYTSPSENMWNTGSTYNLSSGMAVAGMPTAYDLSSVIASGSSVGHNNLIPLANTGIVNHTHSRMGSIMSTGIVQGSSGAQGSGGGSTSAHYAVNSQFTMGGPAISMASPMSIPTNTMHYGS
Experiment: CARM1 degradation by western blot in MDA-MB-231 cells
Assay type: cell-based
Settings: triple-negative MDA-MB-231 cells, 0.5 μM, after 24 or 48 h
Text: FIGS. 7A-7F. […] Cell lysates were collected and CARM1, methyl-BAF155, total BAF155, methyl-PABP1, and total PABP1 levels were detected by Western blot. […] Cell lysates were collected and CARM1, methyl-BAF155, total BAF155 levels were detected by Western blot. […] Cell proliferation rate normalized to day 0 was plotted. […] Migrated cells were stained with 1% crystal violet and the percentage of migrated cells were plotted. Data mean±s.d. ***. P≤0.001.
Western Blot Assay. Cells were harvested and washed with Dulbecco's phosphate-buffered saline (PBS), then lysed with 1×RIPA lysis buffer (50 mM Tris pH 7.5, 150 mM NaCl, 1% NP-40, 0.5% sodium deoxycholate, and 0.1% sodium dodecyl sulfate) supplemented with 1 mM phenylmethylsulfonyl fluoride, 10 μg/mL aprotinin, 1 μM leupeptin, and 10 μg/mL pepstatin on ice for 20 min. The supernatant was collected after spinning down at 15000 RPM at 4 degrees Celsius for 10 min. The concentration of whole lysates was quantified using a Bradford assay. 50-75 μg of cell lysates was boiled in 4× Laemmli Loading Dye and boiled at 100 degrees Celsius for 10 min. 25 μg were run in 8% SDS-PAGE gels and transferred to nitrocellulose membranes. Blots were blocked in 5% skim milk in PBST [PBS and 0.1% Tween 20] for 45 min, then incubated with primary antibodies at 4 degrees Celsius overnight. […]

`CNCCN1CCC(c2cc(CN(C)C(=O)c3cccc(Oc4ccc(OCC(=O)N5CCC(CN6CCC(CN7CCN(CC(=O)N[C@H](C(=O)N8C[C@H](O)C[C@H]8C(=O)N[C@@H](C)c8ccc(-c9scnc9C)cc8)C(C)(C)C)CC7)CC6)CC5)cc4)c3)ccn2)CC1` [Compound 3b, (2S,4R)-1-((S)-3,3-dimethyl-2-(2-(4-((1-((1-(2-(4-(3-(methyl((2-(1-(2-(methylamino)ethyl)piperidin-4-yl)pyridin-4-yl)methyl)carbamoyl)phenoxy)phenoxy)acetyl)piperidin-4-yl)methyl)piperidin-4-yl)methyl)piperazin-1-yl)acetamido)butanoyl)-4-hydroxy-N—((S)-1-(4-(4-methylthiazol-5-yl)phenyl)ethyl)pyrrolidine-2-carboxamide] was tested, and the CARM1 degradation was “effectively degraded”.
